Measurements: ChEMBL document CHEMBL3044787, “Carboxylesterase of the Rice Stem Borer, Chilo suppressalis WALKER (Lepidoptera: Pyralidae), Responsible for Fenitrothion Resistance as a Sequestering Protein” (J Pestic Sci, 1996)

Key:
[1] = Binding affinity to carboxylesterase in organophosphate-resistant Chilo suppressalis (rice stem borer) midgut soluble fraction assessed as inhibition of [14C]fenitroxon-sequestering activity at 10 umol/ml; settings: probe [14C]fenitroxon
Chilo suppressalis [2] = test: Insecticidal activity against organophosphate-resistant Chilo suppressalis (rice stem borer) fifth-instar larvae assessed as mortality after 24 hr; format: functional
Chilo suppressalis [3] = test: Insecticidal activity against wild-type Chilo suppressalis (rice stem borer) fifth-instar larvae assessed as mortality after 24 hr; format: functional
Fat body [4] = test: Drug uptake in fat body of wild-type Chilo suppressalis (rice stem borer) fifth-instar larvae assessed per mg protein by liquid scintillation counting; format: ADME
[5] = Drug uptake in cuticle/muscle of organophosphate-resistant Chilo suppressalis (rice stem borer) fifth-instar larvae assessed per mg protein by liquid scintillation counting; format: ADME
Malpighian tubule [6] = test: Drug uptake in Malpighian tubules of wild-type Chilo suppressalis (rice stem borer) fifth-instar larvae assessed per mg protein by liquid scintillation counting; format: ADME
Midgut [7] = test: Drug uptake in midgut of wild-type Chilo suppressalis (rice stem borer) fifth-instar larvae assessed per mg protein by liquid scintillation counting; format: ADME, tissue-based
Haemolymph [8] = test: Drug uptake in haemolymph of organophosphate-resistant Chilo suppressalis (rice stem borer) fifth-instar larvae assessed per mg protein by liquid scintillation counting; format: ADME
Malpighian tubule [9] = test: Drug uptake in Malpighian tubules of organophosphate-resistant Chilo suppressalis (rice stem borer) fifth-instar larvae assessed per mg protein by liquid scintillation counting; format: ADME
[10] = Drug uptake in cuticle/muscle of wild-type Chilo suppressalis (rice stem borer) fifth-instar larvae assessed per mg protein by liquid scintillation counting; format: ADME
Fat body [11] = test: Drug uptake in fat body of organophosphate-resistant Chilo suppressalis (rice stem borer) fifth-instar larvae assessed per mg protein by liquid scintillation counting; format: ADME
Midgut [12] = test: Drug uptake in midgut of organophosphate-resistant Chilo suppressalis (rice stem borer) fifth-instar larvae assessed per mg protein by liquid scintillation counting; format: ADME, tissue-based
Carboxylesterase = target: T1, Carboxylesterase (Loxostege sticticalis, UniProt B3TNN2); test: Inhibition of carboxylesterase major isoform in organophosphate-resistant Chilo suppressalis (rice stem borer) midgut soluble fraction at 15 ng
T1 sequence (B3TNN2 whole entry): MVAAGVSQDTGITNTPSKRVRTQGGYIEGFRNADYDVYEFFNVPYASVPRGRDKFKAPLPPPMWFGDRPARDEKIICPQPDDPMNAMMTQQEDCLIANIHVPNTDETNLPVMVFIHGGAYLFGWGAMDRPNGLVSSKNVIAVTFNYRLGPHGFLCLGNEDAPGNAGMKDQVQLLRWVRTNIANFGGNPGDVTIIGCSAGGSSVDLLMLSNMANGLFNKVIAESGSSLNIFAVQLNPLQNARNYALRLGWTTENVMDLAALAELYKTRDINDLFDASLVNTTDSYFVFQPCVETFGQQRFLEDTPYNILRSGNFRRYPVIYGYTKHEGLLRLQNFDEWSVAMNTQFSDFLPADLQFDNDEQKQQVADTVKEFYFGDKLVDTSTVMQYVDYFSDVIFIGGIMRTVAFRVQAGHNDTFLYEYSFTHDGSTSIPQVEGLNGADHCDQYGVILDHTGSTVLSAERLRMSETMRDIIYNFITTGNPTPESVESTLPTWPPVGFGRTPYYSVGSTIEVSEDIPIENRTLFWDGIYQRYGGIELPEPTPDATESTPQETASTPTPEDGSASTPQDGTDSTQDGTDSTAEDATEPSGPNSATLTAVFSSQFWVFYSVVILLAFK

Haemolymph [13] = test: Drug uptake in haemolymph of wild-type Chilo suppressalis (rice stem borer) fifth-instar larvae assessed per mg protein by liquid scintillation counting; format: ADME

CC(=O)Oc1cccc2ccccc12 [ALPHA-NAPHTHYLACETATE]
inhibition at 10 umol/ml [1]: 61.8%

COP(=S)(OC)Oc1ccc([N+](=O)[O-])c(C)c1 [FENITROTHION]
LD50 (Chilo suppressalis [2]): 77.3 mg/kg | LD50 (Chilo suppressalis [3]): 2.42 mg/kg

COP(=O)(OC)Oc1ccc([N+](=O)[O-])c(C)c1 [FENITROXON]
Drug uptake (Fat body [4]): 0.052 nmol/h | Drug uptake [5]: 0.24 nmol/h | Drug uptake (Malpighian tubule [6]): 0.24 nmol/h | Drug uptake (Midgut [7]): 0.22 nmol/h | Drug uptake (Haemolymph [8]): 0.1 nmol/h | Drug uptake (Malpighian tubule [9]): 2.1 nmol/h | Drug uptake [10]: 0.044 nmol/h | Drug uptake (Fat body [11]): 0.35 nmol/h | Drug uptake (Midgut [12]): 1.5 nmol/h | inhibition (INH) (Carboxylesterase): Active | Drug uptake (Haemolymph [13]): 0.042 nmol/h
